From patent US20100069668A1, “5-[(2R)-[2-[2-(2,2,2-TRIFLUOROETHOXY)PHENOXY]ETHYL]AMINO]PROPYL]-2-METHOXYBENZENESULFONAMIDE” (priority 2006, published 2010)
Where a name gives a salt, the structure may show the parent alone.

Tests used:
α1 receptor [1] = assay: antagonism of norepinephrine-induced contraction of isolated urethra smooth muscle; type: cell-based, rat; settings: for pA2 for antagonism of norepinephrine-induced contraction, urethra: isolated rat urethra; for the intensity ratio of the contraction caused by inhibiting norepinephrine, urethra/aorta / the intensity ratio of the contraction caused by inhibiting norepinephrine, urethra/vas deferens: calculated by pA2 value
Protocol: (§1) The antagonism and antagonistic selectivity of α1 receptor of different isolated smooth muscle specimens treated with the compound having formula (I).
(§2) Methods: a 24-hour fasting rat was hit on the head to induce coma, and quickly dissected the abdominal cavity, its urethra, aorta and vas deferens were respectively taken out and recorded the contraction curve with instruments, then the different concentrations and volumes of norepinephrine were added to get noradrenalin's accumulation curve, rinsed immediately to return to baseline, then different concentrations of test drugs were added. Noradrenaline was added repeatedly after 5˜8 minute to obtain average contractile response curve of noradrenalin under different concentrations of antagonist, the contraction pD2 of noradrenaline on the urethra, aorta, vas deferens under different concentrations of samples for test was calculated, the pA2 value for antagonism of contraction caused by the samples against norepinephrine was obtain by regressing with the concentration of test samples and pD2.
Results: pA2 value for the contraction of the different organizations inhibition of smooth muscle specimens induced by the hydrochlorate of compound I and tamsulosin hydrochloride against norepinephrine is shown in Table 1. The intensity ratio of contraction inhibitive effect of urethra and aorta, urethra and vas deferens smooth muscle, caused by the sample against noradrenaline is disclosed in table 2, which is calculated by pA2 value.

α1 receptor [2] = assay: antagonism of norepinephrine-induced contraction of isolated aorta smooth muscle; type: cell-based; settings: isolated rat aorta
Protocol: as §1, §2
(§3) Results: pA2 value for the contraction of the different organizations inhibition of smooth muscle specimens induced by the hydrochlorate of compound I and tamsulosin hydrochloride against norepinephrine is shown in Table 1. […]

α1 receptor [3] = assay: antagonism of norepinephrine-induced contraction of isolated vas deferens smooth muscle; type: cell-based; settings: isolated rat vas deferens
Protocol: as §1, §2, §3

Compound	pA2 for antagonism of norepinephrine-induced contraction, urethra (α1 receptor [1])	the intensity ratio of the contraction caused by inhibiting norepinephrine, urethra/aorta (α1 receptor [1])	the intensity ratio of the contraction caused by inhibiting norepinephrine, urethra/vas deferens (α1 receptor [1])	pA2 value for the contraction caused by inhibiting norepinephrine, aorta (α1 receptor [2])	pA2 value for the contraction caused by inhibiting norepinephrine, vas deferens (α1 receptor [3])
CCOc1ccccc1OCCN[C@H](C)Cc1ccc(OC)c(S(N)(=O)=O)c1 [Tamsulosin hydrochloride]	9.22	3.83	0.123	8.63	10.12
COc1ccc(C[C@@H](C)NCCOc2ccccc2OCC(F)(F)F)cc1S(N)(=O)=O [the hydrochlorate of compound I, 5-[(2R)-[2-[2-[2-(2,2,2-trifluoroethoxy)phenoxy]ethyl]amino]propyl]-2-methoxybenzenesulfonamide]	11.00	607.31	8.120	8.21	10.08
